In patent US20140335021A1, “Ocular Neostigmine Drops for Diagnosing Myasthenia Gravis” (priority 2013, published 2014):

Tests used:
[1] = test system: patients with probable or definite MG; assay: Ocular neostigmine drop test for ptosis in patients with probable or definite myasthenia gravis; format: in vivo, human
Procedure: (§1) 2) experiments in which the standard IV neostigmine solution was instilled into both eyes of patients with probable or definite symptomatic MG.
(§2) Both sets of experiments used the standard neostigmine (2.5 mg/ml) solution available in hospitals for anesthetic/surgical use for reversal of neuromuscular block. This solution is buffered and FDA-approved for use in humans. In both sets of experiments, one drop of this solution was used in an eye, limiting substantially the amount of drug that might be absorbed systemically.
Patients with probable or definite MG were asked to sign informed consent approved by the appropriate Institutional Ethics Committees. Ptosis was recorded photographically, and pulse and blood pressure were also recorded prior to beginning the test. One drop of standard IV neostigmine solution (2.5 mg/ml) was instilled into each symptomatic eye of the patient. Fifteen minutes later, possible changes in ptosis were assessed. Pulse and blood pressure was recorded again and after another 15 minutes. At 30 minutes, the patient was evaluated also for possible changes in ptosis (documented by photography), obvious irritation of either eye and for report of discomfort.
Six patients (3 males and 3 females) who presented with ptosis and/or ocular motility disturbance were enrolled in the study. Their ages ranged between 4.5 and 55 years (median=42 years, mean=36.4 years). […]

[2] = test system: New Zealand White rabbits; assay: Pupillary size after ocular instillation of neostigmine solution in rabbits; format: in vivo, rabbit; settings: for mean [SD] pupillary size, right eye: saline left eye 7.0 mm, p=0.0001
Procedure: as §1, §2
Male New Zealand White rabbits (2.5-3.0 kg body weight) were used in all experiments. The animals were kept in a room of controlled room temperature (24.0+1.0° C.) and humidity and a fixed dark light cycle (light on at 7:00 am and off at 19:00 pm).
The sterile neostigmine solution (2.5 mg/ml) was instilled into the right eye (one drop), while the control eye (left eye) received one drop of sterile saline (0.9% sodium chloride). Assessment of pupillary size was done at 30 minute intervals following instillation of neostigmine. The left eye of each rabbit acted as control for the right one.
The amount of neostigmine methylsulphate was calculated to be 0.1 mg/drop. Therefore, each rabbit's eye was instilled by 0.1 mg of sterile neostigmine methylsulphate. The sterile dropper for instilling neostigmine was used only once and then discarded. To prevent the drop of neostigmine from leaking out of the rabbit's eye, the lower eye lid of the rabbits was held out for at least 2-3 minutes in order to keep the drop inside the eye and allow for better absorption of the drug through the cornea.
(§3) The pupil size of both the right and left eyes of each rabbit was measured at baseline in mms by using a plastic ruler. After instilling the neostigmine solution (right eye) or saline (left eye), the pupil size was measured again at 30 minute intervals following drug or saline instillation. One drop of neostimine was instilled daily for 7 days and signs of ocular inflammation were observed.
The mean values for the pupil sizes of the right eyes were recorded as well as those of the left eyes, separately. Paired t-test was used for comparison of data among the different groups on SPSS software. A probability value of <0.05 was considered to be significant.

[3] = test system: New Zealand White rabbits; assay: Ocular inflammation on daily instillation for 7 days in rabbits; format: in vivo; settings: one drop daily for 7 days, rabbit eye
Procedure: as §1, §3

CN(C)C(=O)Oc1cccc([N+](C)(C)C)c1 [neostigmine, 3-(trimethylamino)phenyl N,N-dimethylcarbamate]
response of ptosis (palpebral fissure height) ([1]; 3 patients with no prior treatment for MG (Patients 1, 2 and 5)): dramatic
increase of the palpebral fissure height ([1]; all 6 patients with MG, 30 minutes after instillation of one drop 2.5 mg/ml per symptomatic eye): at least 2 mm
pupil diameter, right eye, representative rabbit (FIG. 2) ([2]; 1 week after daily instillation of 1 drop, last drop 24 hours previously): 6.0 mm
pupil diameter, right eye, representative rabbit (FIG. 2) ([2]; 30 mins post neostigmine, pre 6.0 mm): 2.0 mm
mean [SD] pupillary size, right eye ([2]; 30 minutes after one drop of 2.5 mg/ml solution (0.1 mg) in right eye, 30 rabbits): 4.8 mm
pupil diameter, right eye, representative rabbit (FIG. 2) ([2]; 60 mins post neostigmine, pre 6.0 mm): 1.5 mm
mean [SD] pupillary size, right eye ([2]; 60 minutes after one drop of 2.5 mg/ml solution (0.1 mg) in right eye): 4.8 mm
ocular inflammation [3]: no ocular inflammation
